Assay results taken from patent US4778790A, “Perhydrothiazepine and perhydroazepine derivatives and their therapeutic use” (Sankyo Company Limited, priority 1986, dated 1988).
pIC50: −log10 of the molar value. Where a name gives a salt, the structure may show the parent alone.

Biological target: T1, ACE extracted from rabbit lungs (Oryctolagus cuniculus, UniProt P12822)
T1 construct: ACE extracted from rabbit lungs; from tissue; host or cells: rabbit lung
T1 sequence (P12822 34-1310): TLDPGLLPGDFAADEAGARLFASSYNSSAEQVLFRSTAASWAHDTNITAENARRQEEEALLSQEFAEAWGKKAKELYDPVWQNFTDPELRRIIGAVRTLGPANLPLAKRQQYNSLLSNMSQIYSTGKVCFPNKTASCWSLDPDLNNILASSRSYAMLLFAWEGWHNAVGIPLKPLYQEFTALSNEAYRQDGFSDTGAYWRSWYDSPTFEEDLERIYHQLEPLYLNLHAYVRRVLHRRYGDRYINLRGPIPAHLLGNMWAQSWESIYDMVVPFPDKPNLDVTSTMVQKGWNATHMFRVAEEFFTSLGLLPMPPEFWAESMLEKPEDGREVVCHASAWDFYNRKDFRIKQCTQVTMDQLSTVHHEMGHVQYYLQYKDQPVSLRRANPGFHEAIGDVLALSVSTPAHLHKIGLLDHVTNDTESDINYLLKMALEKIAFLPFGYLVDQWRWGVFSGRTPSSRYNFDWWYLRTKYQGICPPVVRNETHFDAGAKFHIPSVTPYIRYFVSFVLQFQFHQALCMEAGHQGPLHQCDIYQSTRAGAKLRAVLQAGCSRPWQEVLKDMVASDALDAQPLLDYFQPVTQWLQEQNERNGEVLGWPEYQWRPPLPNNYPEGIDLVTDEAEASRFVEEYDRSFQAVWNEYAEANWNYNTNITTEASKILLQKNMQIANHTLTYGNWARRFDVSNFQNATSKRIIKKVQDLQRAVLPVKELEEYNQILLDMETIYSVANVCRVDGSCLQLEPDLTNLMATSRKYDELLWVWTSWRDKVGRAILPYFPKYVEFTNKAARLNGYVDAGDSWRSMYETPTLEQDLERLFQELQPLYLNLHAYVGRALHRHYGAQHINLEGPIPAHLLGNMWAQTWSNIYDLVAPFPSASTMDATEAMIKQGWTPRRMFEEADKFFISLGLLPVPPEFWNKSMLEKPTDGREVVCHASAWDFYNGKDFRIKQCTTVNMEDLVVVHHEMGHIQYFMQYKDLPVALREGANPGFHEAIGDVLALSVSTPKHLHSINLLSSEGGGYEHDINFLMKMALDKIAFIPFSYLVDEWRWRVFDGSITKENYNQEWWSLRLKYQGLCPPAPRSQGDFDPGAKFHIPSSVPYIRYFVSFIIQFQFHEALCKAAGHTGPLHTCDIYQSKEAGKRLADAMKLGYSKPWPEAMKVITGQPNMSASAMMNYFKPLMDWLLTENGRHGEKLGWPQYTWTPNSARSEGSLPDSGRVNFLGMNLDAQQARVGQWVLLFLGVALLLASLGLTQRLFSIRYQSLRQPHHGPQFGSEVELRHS
Experiment: in vitro ACE inhibition (hippurylhistidylleucine substrate, procedure of Cushman et al.)
Format: biochemical
Conditions: rabbit lung ACE, borate buffer with NaCl, pH 8.3, 37° C., 30 minutes, read-out: IC50 (concentration required to inhibit the activity of ACE by 50% in vitro)
Text: As noted above, the compounds of the present invention have the ability to inhibit the activity of ACE, the enzyme which converts angiotensin I to angiotensin II and also inactivates bradykinin. The physiological activity of the compounds of the invention can be evaluated by determining the concentration of the test compound required to inhibit the activity of ACE by 50% in vitro (IC50), for example by the procedure of D. W. Cushman et al. [Biochemical Pharmacology, 20, 1637 (1971)]. Specifically, solutions of ACE extracted from rabbit lungs and, as substrate, hippurylhistidylleucine, to which had been added the test compound at various concentrations, were added to a borate buffer solution containing sodium chloride, and the pH was adjusted to a value of 8.3. The enzymatic reaction was allowed to proceed at 37° C. for 30 minutes, after which time the reaction was terminated by adding 1N aqueous hydrochloric acid. […] The residual hippuric acid was dissolved in water. The amount of hippuric acid in the resulting aqueous solution was determined by the absorbency to ultraviolet radiation at 228 nm. The resulting values were then plotted to form a curve indicating the relationship between the amount of hippuric acid formed and the concentration of the test compound. The IC50 value can be obtained by reading on this curve the concentration of the test compound which reduces the amount of hippuric acid formed to one half of that formed when no test compound is present.

Row | Compound | pIC50
1 | O=C(O)CN1C[C@@H](c2ccccc2)CC[C@H](N[C@@H](CCCCC2CCNCC2)C(=O)O)C1=O (relative stereo) [G, rel-α-{3(S)-[1(S)-Carboxy-5-(4-piperidyl)pentylamino]-2-oxo-6(R)-phenylperhydroazepin-1-yl}acetic acid] | 8.43
2 | NCCCC[C@H](N[C@H]1CS[C@H](c2cccs2)CN(CC(=O)O)C1=O)C(=O)O [A, α-{6(R)-[5-Amino-1(S)-carboxypentylamino]-5-oxo-2(S)-(2-thienyl)perhydro-1,4-thiazepin-4-yl}acetic acid dihydrochloride] | 8.48
3 | NCCCCCC[C@H](N[C@H]1CS[C@H](c2cccs2)CN(CC(=O)O)C1=O)C(=O)O [B, α-{6(R)-[7-Amino-1(S)-carboxyheptylamino]-5-oxo-2(S)-(2-thienyl)perhydro-1,4-thiazepin-4-yl}acetic acid] | 8.70
4 | NCCCCCCC(NC1CSC(c2ccccc2)CN(CC(=O)O)C1=O)C(=O)O [C, rel-α-}6(R)-[7-Amino-1(S)-carboxyheptylamino]-5-oxo-2(R)-phenylperhydro-1,4-thiazepin-4-yl}acetic acid] | 8.51
5 | NCCCCCCC[C@H](N[C@H]1CS[C@H](c2cccs2)CN(CC(=O)O)C1=O)C(=O)O [D] | 8.80
6 | NCCCCCCCC(NC1CCC(c2ccccc2)CN(CC(=O)O)C1=O)C(=O)O [E, rel-α-{3(S)-[8-Amino-1(S)-carboxyoctylamino]-2-oxo-6(R)-phenylperhydrozepin-1-yl}acetic acid] | 8.39
7 | O=C(O)CN1C[C@@H](c2cccs2)SC[C@H](N[C@@H](CCCCC2CCNCC2)C(=O)O)C1=O [F, α-{6(R)-[1(S)-Carboxy-5-(4-piperidyl)pentylamino]-5-oxo-2(S)-(2-thienyl)perhydro-1,4-thiazepin-4-yl}acetic acid] | 8.80
